Results on eight molecules are retold here after US20240228493A1, “LRRK2 INHIBITORS AND USES THEREOF” (NEURON23, ICN., priority 2022, published 2024).

Data set [1] has as its target T1, wt human LRRK2, catalytic site (Homo sapiens, UniProt Q5S007).
T1 construct: wt human LRRK2, catalytic site, catalytic site (ThermoFisher/USA); purchased ThermoFisher
As to the kind of experiment: TR-FRET LanthaScreen Tb Kinase Activity Assay, LRRK2 inhibition. The format is biochemical. The following applies: 2 nM wt human LRRK2, 400 nM peptide, 38 μM ATP. How it is done: The compounds disclosed herein were tested for their inhibitory effect on LRRK2 kinase according to the following procedures.
The protocol for basic TR-FRET LanthaScreen Tb Kinase Activity Assay inhibitor studies were as follows. LanthaScreen Kinase Activity Assays (ThermoFisher/USA) to evaluate inhibitors were performed by addition of 100 nL of test compound in corresponding DMSO dilutions/5 μL of kinase/fluorescein-ERM (LRRKtide) peptide mixture, Compound & kinase were pre-incubated for 15 minutes, then 5 μl of ATP into 384 well small volume plates. After incubation for 120 minutes at room temperature, the detection reagents containing Tb-anti-pLRRKtide antibody were added to monitor phosphorylation level of peptide. Then, after 60 min minutes incubation at room temperature plates were read in Envision. Data analysis of emission ratios was according to LanthaScreen Tb Kinase Activity Assay protocol.
Kinase and assay components were adjusted to final concentrations according to the kit protocol. For LRRK2: 2 nM wt human LRRK2, catalytic site, catalytic site (ThermoFisher/USA), 400 nM peptide, 38 μM ATP in 1× Kinase Buffer A. […]
Kinase and assay components were adjusted to final concentrations according to the kit protocol.

For data set [2], the system named is Caco-2 cells. Put plainly: Caco-2 bidirectional permeability. The class given is in vitro ADME. The settings on record: for Caco-2 ER: Efflux Ratio=Papp(BA)/Papp(AB); for Caco-2 A2B (10^−6 cm/s): apical to basolateral; for Caco-2 A2B (10^−6 cm/s) / Caco-2 B2A (10^−6 cm/s): 2 hours, pH 7.4; for Caco-2 B2A (10^−6 cm/s): basolateral to apical. How it is done: The compounds disclosed herein were tested in vitro on CaCo2 cell penetration according to the following procedures.
Caco-2 cells purchased from ATCC were seeded onto […] (PET) in 96-well Corning Insert plates at 1×10^5 cells/cm^2. The media were refreshed every 4 to 5 days until the 21st to 28th day for confluent cell monolayer formation.
Experiments were run in duplicate using a HBSS transport buffer containing 10 mM HEPES at pH 7.4. The test article TEST COMPOUND was tested bi-directionally at […] concentrations, the control compound digoxin was tested bi-directionally at 10 μM, and nadolol and metoprolol were tested at 2.0 μM in the A to B direction. Final DMSO concentrations were adjusted to less than 1%. The plates were incubated for 2 hours in a CO2 incubator at 37±1° C. with 5% CO2 at saturated humidity without shaking. Following incubation, samples were mixed with acetonitrile containing internal standard and centrifuged at 3200×g for 10 minutes. Then 200 μL of supernatant was taken from all samples. For TEST COMPOUND and digoxin, the supernatant was diluted with 200 μL of ultra-pure water and for nadolol and metoprolol, the supernatant was diluted with 600 μL of ultra-pure water. All samples were analyzed by LC-MS/MS. Concentrations of TEST COMPOUND and control compounds were determined in starting solutions, donor well solutions, and receiver well solutions using peak area ratios (PAR) of analyte to internal standard. After the transport assay, a lucifer yellow rejection assay was run to determine the Caco-2 cell monolayer integrity.
The apparent permeability (Papp), the % recovery and the efflux ratio were calculated as follows:
Papp=(dCr/dt)×Vr/(A×C0) 1.
Efflux Ratio=Papp(BA)/Papp(AB) 3. • Where: • dCr/dt is the slope of the cumulative concentration in the receiver compartment versus time (mM/s). • Vr and Vd is the volume in the receiver and donor compartments (0.075 mL on the apical side, 0.25 mL on the basolateral side), respectively. • A is the surface area of the cell monolayer (0.0804 cm^2). • C0 is the measured donor concentrations (μM) at the beginning of the experiment. • Cd and Cr are the final measured concentrations in the donor and receiver compartments, respectively.

Data set [3] deals with human hepatocyte. Put plainly: Human hepatocyte stability, predicted hepatic clearance (h-Hept CL predict). The class given is in vitro ADME. The following applies: human hepatocytes, 0.5×10^6 cells/mL, 1 μM, values without asterisk. As to the method: The compounds disclosed herein were tested in vitro on human hepatocyte for in vitro h-Hept CL predict according to the following procedures. • 1. Compound sock solutions were prepared by dissolving test compound and positive control in dimethyl sulfoxide (DMSO) at a concentration of 10 mM. Stock solutions were then diluted to 100 μM solutions by combining 198 μL of 50% acetonitrile/50% water with 2 μL of the 10 mM stock in separate conical tubes. • 2. Cryopreserved hepatocytes were prepared as follows: Incubation medium (William's E Medium supplemented with GlutaMAX) and hepatocyte thawing medium were placed in a 37° C. water bath and allowed to warm for at least 15 minutes prior to use. Cryopreserved hepatocytes were removed from storage, ensuring that vials remained at cryogenic temperatures until thawed. Cells were thawed by placing the vials in a 37° C. water bath and gently shaking the vials for 2 minutes. After thawing was completed, vials were sprayed with 70% ethanol and transferred to a biosafety cabinet. Hepatocytes were transferred into 50 mL conical tube containing thawing medium using wide-bore pipette tips. Tubes were placed into a centrifuge and spun at 100 g for 10 minutes. Then thawing medium was aspirated and hepatocytes were resuspended in enough incubation medium to yield ˜1.5×10^6 cells/mL. Cells were counted using acridine orange and propidium iodide (AO/PI) staining, and the viable cell density was determined. Cells were diluted with incubation medium to a working cell density of 0.5×10^6 viable cells/mL. • 3. To determine hepatocyte stability, 198 μL of hepatocytes were transferred into each well of a 96-well non-coated plate. Plates were placed in an incubator to allow the hepatocytes to warm for 10 minutes. • 4. The reaction was started by transferring 2 μL of the 100 μM test compound or positive control solution into respective wells of the 96-well non-coated plates. Plates were returned to the incubator until 25 μL aliquots of well contents were sampled at time points of 0, 15, 30, 60, 90 and 120 minutes. The aliquots were then mixed with 6 volumes (150 μL) of acetonitrile containing internal standard, IS (100 nM alprazolam, 200 nM caffeine and 100 nM tolbutamide) to terminate the reaction and vortexed for 5 minutes. After centrifuging the samples for 45 minutes at 3,220 g, aliquots of 100 μL of the supernatant were taken and diluted with 100 μL of ultra-pure water. The mixture was used for LC/MS/MS analysis. All incubations were performed in duplicate.
All calculations were carried out using Microsoft Excel. Peak area ratios (PAR) were determined from extracted ion chromatograms. The in vitro half-life (t1/2) of parent compound was determined by regression analysis of the percent parent disappearance vs. time curve as follows:
Conversion of the in vitro t1/2 (in minutes) into the in vitro intrinsic clearance (in vitro CLint, in μL/min/1×10^6 cells) was done using the following equation (mean of duplicate determinations): […]
The scaled-up intrinsic clearance (CLint, mL/min/kg), predicted hepatic clearance (CLH, mL/min/kg) and hepatic extraction ratio (ER) were calculated using the following equations:
CLint=(0.693/t1/2)*(1/(hepatocyte concentration (0.5*10^6 cells/mL)))*scaling factors (Table (A) Appendix Table 1)
CLHept-predict=(QH*Scaled-up CLint*fub)/(QH+Scaled-up CLint*fub)
ER=CLH/QH • Where: • V=incubation volume (0.2 mL) • N=number of hepatocytes per well (0.1*10^6 cells) • QH=hepatic blood flow (mL/min/kg) (Table (A) Appendix Table 1) • fub=fraction of unbound drug in plasma, assumed to be 1

T1 sequence (Q5S007 1879-2138 limits assumed): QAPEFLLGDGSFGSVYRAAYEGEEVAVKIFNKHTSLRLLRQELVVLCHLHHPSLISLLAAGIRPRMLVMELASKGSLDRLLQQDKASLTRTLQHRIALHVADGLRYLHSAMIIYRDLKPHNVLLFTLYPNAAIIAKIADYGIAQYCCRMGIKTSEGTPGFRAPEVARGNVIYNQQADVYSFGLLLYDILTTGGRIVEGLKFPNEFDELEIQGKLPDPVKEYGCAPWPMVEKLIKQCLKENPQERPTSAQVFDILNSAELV

`Cc1n[nH]c2c1N=C(c1c(F)cccc1F)Nc1cnc(-c3cn[nH]c3)cc1-2` [Example 29, 8-(2,6-difluorophenyl)-5-methyl-13-(1H-pyrazol-4-y1)-3,4,7,9,12-pentazatricyclo[8.4.0.02,6]tetradeca-1(10),2(6),4,7,11,13-hexaene] showed a half-maximal inhibitory concentration (IC50) in data set [1] below 1 nM. Further, in data set [2], the “Caco-2 ER” value is given as “L (L (Likely)”: ER≥2.5)”, the “Caco-2 A2B (10^−6 cm/s)” value is listed as “L (L (Low permeability)”: A2B (B2A)<1)” and the “Caco-2 B2A (10^−6 cm/s)” value was “H (H (High permeability)”: A2B (B2A)>5)”. Further, the “hHep Cl (mL/min/kg)” value in data set [3] is “L (L (Low Cl)”: Hep Cl (mL/min/kg)<6.3)”.

`Fc1cccc(F)c1C1=Nc2c(Cl)n[nH]c2-c2cc(-c3ccn(CC(F)F)n3)ncc2N1` [Example 30, (3-chloro-9-(1-(2,2-difluoroethyl)-1H-pyrazol-3-yl)-5-(2,6-difluorophenyl)-1,6-dihydropyrazolo[4,3-d]pyrido[4,3-f][1,3]diazepine)] had an IC50 in data set [1] below 1 nM. Further, in data set [2], the “Caco-2 ER” value is “L (L (Likely)”: ER≥2.5)”, the “Caco-2 A2B (10^−6 cm/s)” value is listed as “M (M (Moderate permeability)”: 1≤A2B (B2A)≤5)” and the “Caco-2 B2A (10^−6 cm/s)” value was “H (H (High permeability)”: A2B (B2A)>5)”. The “hHep Cl (mL/min/kg)” value in data set [3] is recorded as “I (I (Intermediate Cl)”: 6.3≤Hep Cl (mL/min/kg)≤14.7)”.

In data set [1], `COC1(C#Cc2cc3c(cn2)NC(c2c(F)cccc2F)=Nc2c(C)n[nH]c2-3)CCOCC1` [Example 31, 8-(2,6-difluorophenyl)-13-[2-(4-methoxytetrahydropyran-4-y1)ethynyl]-5-methyl-3,4,7,9,12-pentazatricyclo[8.4.0.02,6]tetradeca-1(10),2(6),4,7,11,13-hexaene] displayed a 50% inhibitory concentration (IC50) below 1 nM. Also, in data set [2], the “Caco-2 ER” value was “L (L (Likely)”: ER≥2.5)”, the “Caco-2 A2B (10^−6 cm/s)” value was “M (M (Moderate permeability)”: 1≤A2B (B2A)≤5)” and the “Caco-2 B2A (10^−6 cm/s)” value is “H (H (High permeability)”: A2B (B2A)>5)”. For the same molecule, the “hHep Cl (mL/min/kg)” value in data set [3] was “I (I (Intermediate Cl)”: 6.3≤Hep Cl (mL/min/kg)≤14.7)”.

For `Cc1n[nH]c2c1N=C(c1c(F)cccc1F)Nc1c-2cc(N2CCC(O)CC2)nc1C` [Example 40, 1-(5-(2,6-difluorophenyl)-3,7-dimethyl-1,6-dihydropyrazolo[4,3-d]pyrido[4,3-f][1,3]diazepin-9-yl)piperidin-4-ol], the IC50 in data set [1] is below 1 nM. Moreover, in data set [2], the “Caco-2 ER” value is recorded as “L (L (Likely)”: ER≥2.5)”, the “Caco-2 A2B (10^−6 cm/s)” value is “M (M (Moderate permeability)”: 1≤A2B (B2A)≤5)” and the “Caco-2 B2A (10^−6 cm/s)” value is on record as “H (H (High permeability)”: A2B (B2A)>5)”. Also, the “hHep Cl (mL/min/kg)” value in data set [3] is “I (I (Intermediate Cl)”: 6.3≤Hep Cl (mL/min/kg)≤14.7)”.

Consider `Cc1n[nH]c2c1N=C(c1c(F)cccc1F)Nc1c-2cc(N2CCN(S(C)(=O)=O)CC2)nc1C` [Example 44, 5-(2,6-difluorophenyl)-3,7-dimethyl-9-(4-(methylsulfonyl)piperazin-1-yl)-1,6-dihydropyrazolo[4,3-d]pyrido[4,3-f][1,3]diazepine], for which, in data set [1], the 50% inhibitory concentration (IC50) was below 1 nM. In data set [2], the “Caco-2 ER” value was “L (L (Likely)”: ER≥2.5)”, the “Caco-2 A2B (10^−6 cm/s)” value was “L (L (Low permeability)”: A2B (B2A)<1)” and the “Caco-2 B2A (10^−6 cm/s)” value is reported as “H (H (High permeability)”: A2B (B2A)>5)”. The “hHep Cl (mL/min/kg)” value in data set [3] was “L (L (Low Cl)”: Hep Cl (mL/min/kg)<6.3)”.

Consider `Cc1nc(N2CCC[C@@H](C#N)C2)cc2c1NC(c1c(F)cccc1F)=Nc1cn[nH]c1-2` [Example 47, (R)-1-(5-(2,6-difluorophenyl)-7-methyl-1,6-dihydropyrazolo[4,3-d]pyrido[4,3-f][1,3]diazepin-9-y1)piperidine-3-carbonitrile], for which, in data set [1], the IC50 is below 1 nM. Further, in data set [2], the “Caco-2 ER” value is “L (L (Likely)”: ER≥2.5)”, the “Caco-2 A2B (10^−6 cm/s)” value is recorded as “M (M (Moderate permeability)”: 1≤A2B (B2A)≤5)” and the “Caco-2 B2A (10^−6 cm/s)” value is given as “H (H (High permeability)”: A2B (B2A)>5)”. In data set [3], the “hHep Cl (mL/min/kg)” value is on record as “H (H (High Cl)”: Hep Cl (mL/min/kg)>14.7)”.

In turn, `Cc1n[nH]c2c1N=C(c1c(F)cccc1F)Nc1cnc(N3CC[C@@H](C#N)C3)cc1-2` [Example 49, (R)-1-(5-(2,6-difluorophenyl)-3-methyl-1,6-dihydropyrazolo[4,3-d]pyrido[4,3-f][1,3]diazepin-9-y1)pyrrolidine-3-carbonitrile] yielded a 50% inhibitory concentration (IC50) in data set [1] of 1 to 100 nM. Moreover, in data set [2], the “Caco-2 ER” value was “L (L (Likely)”: ER≥2.5)”, the “Caco-2 A2B (10^−6 cm/s)” value is reported as “M (M (Moderate permeability)”: 1≤A2B (B2A)≤5)” and the “Caco-2 B2A (10^−6 cm/s)” value is listed as “H (H (High permeability)”: A2B (B2A)>5)”. Moreover, in data set [3], the “hHep Cl (mL/min/kg)” value is “I (I (Intermediate Cl)”: 6.3≤Hep Cl (mL/min/kg)≤14.7)”.

`Cc1n[nH]c2c1N=C(c1c(F)ccc(CO)c1F)Nc1cnc(N3CCOCC3)cc1-2` [Example 50, (2,4-difluoro-3-(3-methyl-9-morpholino-1,6-dihydropyrazolo[4,3-d]pyrido[4,3-f][1,3]diazepin-5-yl)phenyl)methanol]: the concentration for half-maximal inhibition (IC50) in data set [1] is 1 to 100 nM. In data set [2], the “Caco-2 ER” value is on record as “L (L (Likely)”: ER≥2.5)”, the “Caco-2 A2B (10^−6 cm/s)” value is reported as “L (L (Low permeability)”: A2B (B2A)<1)” and the “Caco-2 B2A (10^−6 cm/s)” value is listed as “H (H (High permeability)”: A2B (B2A)>5)”. Moreover, the “hHep Cl (mL/min/kg)” value in data set [3] is listed as “L (L (Low Cl)”: Hep Cl (mL/min/kg)<6.3)”.
